Values quoted from earlier work in paper PMC10714399, “Open Source Antibiotics: Simple Diarylimidazoles Are Potent against Methicillin-Resistant Staphylococcus aureus” (ACS Infectious Diseases, 2023).

Tests used:
[1] = test system: TGF-β1-induced fibronectin mRNA formation; set-up: method as in earlier work; conditions: cited from earlier work
[2] = set-up: method as in earlier work; conditions: 48 h XTT assay; read-out: CC50, cytotoxicity; cited from earlier work
p38 kinase = test system: p38 kinase; set-up: method as in earlier work; conditions: cited from earlier work
[3] = molecular target: transforming growth factor β1 (TGF-β1) type I receptor (ALK5); set-up: method as in earlier work; conditions: read-out: IC50 against ALK5; cited from earlier work

## NC(=O)c1ccc(-c2nc(-c3ccc4c(c3)OCO4)c(-c3ccccn3)[nH]2)cc1 [SB-431542]
[1]
  IC50: 50 nM
[2]
  CC50: > 30000 nM
p38 kinase
  inhibition of p38 kinase: no inhibition
[3]
  IC50: 94 nM
